Experimental data reported in US5403932A, “Phosphoramidates useful as antitumor agents” (Research Corporation Technologies, Inc., priority 1994, dated 1995).
Like-named read-outs stand apart in the source and are kept apart here.

How the values were obtained:
[1] = tested on: HT29 human colon cancer cells; assay: Aerobic and hypoxic selectivity against human colon cancer HT29 cells, colony formation; type: cell-based; details: 4 h
Experimental: HT29 human colon cancer cells were maintained in exponential growth in α-MEM medium supplemented with 10% fetal bovine serum and 25 mM HEPES buffer, and cultured at 37° C. and 3% CO2. For drug treatments, 1-2×10^6 cells in 10 ml of medium were transferred to glass reaction vials. For the hypoxic experiments, the medium was first gassed for 3 hr with 95% nitrogen/5% CO2 to achieve a partial pressure of oxygen <100 ppm. These cell suspensions were then treated with drug at different concentrations under either aerobic or hypoxic conditions for 4 hr in the reaction vials. The medium was removed, the cells were washed, and a colony formation assay was carried out as described above in Example 15. Colonies with […] 50 cells were counted 12-14 days after plating. The log of the surviving fraction was plotted against drug concentration, and from this plot the concentration required to reduce the colony number to 10% of control (LC90) was determined. The results of this test on representative compounds of the present invention are depicted in Table 4.

[2] = tested on: L1210/O (cyclophosphamide sensitive) murine leukemia cells; assay: Soft agar colony-forming assay, in vitro cytotoxicity against cyclophosphamide-sensitive L1210 murine leukemia; type: cell-based, mouse; details: 1 h at 37°, 99% cell kill
Experimental: (§1) The In Vitro cytotoxic activity of representative compounds under hypoxic and aerobic conditions were evaluated as follows.
(§2) A soft agar colony-forming assay according to the procedure of Chu and Fischer, Biochem. Pharmacol., 17, 753-767 (1968) was used and modified where necessary. Cultured mouse L1210 and P388 sensitive cells were purchased from EG&G Mason Research Institute, Tumor Bank, Worchester, Ma. Cultured cyclophosphamide resistant L1210 and P388 cells were obtained from Dr. Robert Struck of Southern Research Institute, Birmingham, Ala. Typically, the desired cells (2-3×10^6 cells/ml) in exponential growth and suspended in 6.5 ml of Fischer's medium (Gibco Lab., Grand Island, N.Y.) were divided into six groups (1 control and 5 treated groups) containing an equal number of cells in 1 ml. These cells were then treated with varying doses of drug diluted with media to give a total volume of 10 ml, and incubated for one hour at 37° C. The cells were washed three times with 3 ml of supplemented Fischer's medium (containing 10% horse serum) by centrifuge (800×g), removal of media by suction, and resuspension of the pellet in media (5 ml). A 1-ml portion was used to determine the cell count with a Coulter counter. From the remainder, a 5-ml suspension of cells was prepared at a density of 10^5 cells/ml, and between 10^2 and 10^5 cells were placed on soft agar and incubated at 37° C. Colonies were counted after 10 days. The log of the surviving fraction was plotted vs. drug concentration and from this plot the LC99 was obtained. (By definition, the LC99 value represents the concentration of drug necessary to effect a 99% cell kill.)

[3] = tested on: P388/O (cyclophosphamide sensitive) murine leukemia cells; assay: Soft agar colony-forming assay, in vitro cytotoxicity against cyclophosphamide-sensitive P388 murine leukemia; type: cell-based, mouse; details: 1 h at 37°, 99% cell kill
Experimental: as §1, §2

[4] = tested on: L1210/CP (cyclophosphamide resistant) murine leukemia cells; assay: Soft agar colony-forming assay, in vitro cytotoxicity against cyclophosphamide-resistant L1210 murine leukemia; type: cell-based, mouse; details: 1 h at 37°, 99% cell kill
Experimental: as §1
as §2, with “From the remainder, a 5-ml suspension of cells was prepared at a density of 10^5 cells/ml, and between 10^2 and 10^5 cells were placed on soft agar and incubated at 37° C.” left out, “The log of the surviving fraction was plotted vs. drug concentration and from this plot the LC99 was obtained. (By definition, the LC99 value represents the concentration of drug necessary to effect a 99% cell kill.)” left out

[5] = tested on: P388/CP (cyclophosphamide resistant) murine leukemia cells; assay: Soft agar colony-forming assay, in vitro cytotoxicity against cyclophosphamide-resistant P388 murine leukemia; type: cell-based, mouse; details: 1 h at 37°, 99% cell kill
Experimental: as §1
as §2, with “From the remainder, a 5-ml suspension of cells was prepared at a density of 10^5 cells/ml, and between 10^2 and 10^5 cells were placed on soft agar and incubated at 37° C.” left out, “The log of the surviving fraction was plotted vs. drug concentration and from this plot the LC99 was obtained. (By definition, the LC99 value represents the concentration of drug necessary to effect a 99% cell kill.)” left out

[6] = tested on: KHT/iv cells (mouse KHT sarcoma); assay: Hypoxic cell selectivity using KHT/iv cells, clonogenic assay; type: cell-based; details: 4 h at 37°; for LC99, Aerobic: aerobic (95:5 air:CO2); for LC99, Hypoxic: hypoxic (95:5 nitrogen:CO2)
Experimental: KHT/iv cells were adapted to cell culture from tile mouse KHT sarcoma by Dietmar Siemann, University of Rochester. Cells were maintained in Eagle's basal medium and 10% fetal calf serum for all experiments. Cells in exponential growth were trypsinized from monolayer cultures and separated from one another by agitation in a gas-tight syringe at a density of 1-2×10^7 cells/ml for 15 minutes at 37°. The cells were then resuspended in HEPES-buffered Eagle's medium contained in stirred gas-tight vials at a final density of 2×10^7 cells/ml; before cells or drugs were added, the vials were pre-equilibrated with humidified gas having tile composition 95:5 air:CO2 for aerobic treatment or 95:5 nitrogen:CO2 from hypoxic treatment. Oxygen tension in the hypoxic medium was approximately 100 ppm after tile equilibration period. Drug was dissolved a volume of ethanol that would give a final ethanol concentration of 1% in the medium; this concentration of ethanol had no effect on the plating efficiency of control cell preparations. Cells were incubated with drug under aerobic or hypoxic conditions at 37° for 4 hours. The cells were then removed from the vials, washed with drug-free medium, counted, and plated for cell survival using a standard clonogenic assay. Cell surviving fraction was plotted vs. drug concentration, and the LC99 values were obtained from the least squares equation.

B16 melanoma cells = assay: Cytotoxicity against B16 melanoma cells, colony formation; type: cell-based; details: B16 mouse melanoma, 2 h treatment; read-out: Drug Concentration required to kill 90% of Clonogenic Tumor Cells In Vitro (LC90), B/16
Experimental: B16 melanoma cells in exponential growth (2-3×10^6 cells in 10 ml of serum-free MEM medium) were treated with drug for 2 hr. The cells were separated, washed, and resuspended in MEM medium supplemented with 10% fetal bovine serum. The cells were plated in 60-mm culture dishes at a density of 50-50,000 cells/plate (depending upon the drug concentration used) and then incubated for 8 days in a CO2 incubator at 37°. The colonies were fixed and stained with 0.5% crystal violet in ethanol and counted. The log of the surviving fraction was plotted against drug concentration, and from this plot the concentration required to reduce the colony number to 10% of control (LC90) was determined.

[7] = Table 4, aerobic, read-out: Drug Concentration required to kill 90% of Clonogenic Tumor Cells In Vitro (LC90), HT29 Aerobic
[8] = Table 4, hypoxic (95% nitrogen/5% CO2), read-out: Drug Concentration required to kill 90% of Clonogenic Tumor Cells In Vitro (LC90), HT29 Hypoxic
[9] = Table 3, aerobic, read-out: Drug Concentration required to kill 90% of Clonogenic Tumor Cells In Vitro (LC90), HT29 Aerobic
[10] = Table 3, hypoxic (95% nitrogen/5% CO2), read-out: Drug Concentration required to kill 90% of Clonogenic Tumor Cells In Vitro (LC90), HT29 Hypoxic

Structure (SMILES) | IC90 (B16 melanoma cells) [µM] | IC90 [1, 9] [µM] | IC90 [1, 10] [µM] | other results
CC(OP(=O)(N(CCCl)CCCl)N(CCCl)CCCl)c1ccc([N+](=O)[O-])cc1 (centres unmarked) |  |  |  | IC90 [1, 7]: > 500 µM; IC90 [1, 8]: 45 µM
CCOC(=O)CC(OP(N)(=O)N(CCCl)CCCl)c1cc(CN(C)C)cc2cc([N+](=O)[O-])cnc12 (centres unmarked) |  |  |  | IC90 [1, 7]: 700 µM; IC90 [1, 8]: 95 µM
COC(=O)CC(OP(N)(=O)N(CCCl)CCCl)c1ccccc1[N+](=O)[O-] (centres unmarked) [2-NO2 Ph, methyl 3-(2-nitrophenyl)-3-(N,N-bis(2-chloroethyl)phosphorodiamido)propionate] |  |  |  | LC99 [2]: 172; LC99 [3]: 134
COC(=O)CC(OP(N)(=O)N(CCCl)CCCl)c1ccc([N+](=O)[O-])cc1 (centres unmarked) [4-NO2 Ph, methyl 3-(4-nitrophenyl)-3-(N,N-bis-(2-chloroethyl)phosphorodiamido) propionate] |  |  |  | LC99 [2]: 138; LC99 [4]: 152; LC99 [3]: 82; LC99 [5]: 77
NP(=O)(OCc1ccccc1[N+](=O)[O-])N(CCCl)CCCl (centres unmarked) [Compound 2-nitro] |  |  |  | LC99, Aerobic [6]: 700; LC99, Hypoxic [6]: 230
NP(=O)(OCc1ccc([N+](=O)[O-])cc1)N(CCCl)CCCl (centres unmarked) [Compound 4-nitro] |  |  |  | LC99, Aerobic [6]: 320; LC99, Hypoxic [6]: 120
CCOC(=O)CC(OP(=O)(N(CCCl)CCCl)N(CCCl)CCCl)c1ccc([N+](=O)[O-])cc1 (centres unmarked) [Compound 12, O-(1-(4-nitrophenyl)-2-carbethoxyethyl)-N,N,N',N'-tetrakis(2-chloroethyl)phosphoramide] | > 100 | 80 | 12 | 
CN(C)CCOC(=O)CC(OP(=O)(N(CCCl)CCCl)N(CCCl)CCCl)c1ccc([N+](=O)[O-])cc1 (centres unmarked) [Compound 13, O-(1-(4-nitrophenyl)-2-(2-N,N-dimethylaminoethoxycarbonyl)ethyl)-N,N,N'N'-tetrakis-(2-chloroethyl)phosphoramide] | < 2 | 60 | 35 | 
CN(C)CCOC(=O)CC(OP(=O)(N(CCCl)CCCl)N(CCCl)CCCl)c1ccc([N+](=O)[O-])s1 (centres unmarked) [Compound 14, O-(1-(5-nitro-2-thiophene)-2-(2-N,N-dimethylaminoethoxycarbonyl)ethyl)-N,N,N'N'-tetrakis-(2-chloroethyl)-phosphoramide] | 2.8 | 7.5 | 3 | 
CCOC(=O)CC(OP(=O)(N(CCCl)CCCl)N(CCCl)CCCl)c1ccc([N+](=O)[O-])s1 (centres unmarked) [Compound 15, O-(1-(5-nitro-2-thiophene)-2-carbethoxyethyl)-N,N,N'N'-tetrakis(2-chloroethyl)phosphoramide] | 3 |  |  | 
CCOC(=O)CC(OP(=O)(N(CCCl)CCCl)N(CCCl)CCCl)c1ccc([N+](=O)[O-])c(C)n1 (centres unmarked) [Compound 16, O-(1(6-methyl-5-nitro-2-pyridyl)-2-carbethoxyethyl)-N,N,N'N'-tetrakis(2-chloroethyl)phosphoramide] | 150 | 110 | 25 | 
CCOC(=O)CC(OP(=O)(N(CCCl)CCCl)N(CCCl)CCCl)c1cc([N+](=O)[O-])ccn1 (centres unmarked) [Compound 17, O-(1-(4-nitro-2-pyridyl)-2-carbethoxyethyl)-N,N,N',N'-tetrakis(2-Chloroethyl)phosphoramide] | 50 | 80 | 35 | 
COC(=O)CC(OP(N)(=O)N(CCCl)CCCl)c1ccccc1 (centres unmarked) [Ph, reference compound] |  |  |  | LC99 [2]: 350; LC99 [3]: 300
